Entries after “also recorded” stand apart in the source; their conditions may differ.
Key:
[1] = thin layer chromatography (TLC) lipid II binding assay; details: iodine stain; FIG. 8 and FIG. 9
Text: In FIG. 8 and FIG. 9, a thin layer chromatography (TLC) lipid II binding assay for native and modified nisin A and gallidermin is shown, respectively. The method of the present invention enables direct visualization for the loss of lipid II binding. […] Nisin is not as stable as gallidermin at higher temperatures.

M. luteus = test: bioassay plate overlaid with M. luteus (bacterial clearing); assay type: cell-based; details: 5 μL spotted onto a plate overlaid with M. luteus; FIG. 6
Description: We performed a 2-mercaptoethanol addition to mutacin 1140 at pH 7.3 in Tris buffer at room temperature for 2 hours. FIG. 5 is a RP-HPLC chromatogram of the native mutacin 1140, designated by the black line with triangles, overlaid on the chromatogram of the 2-mercaptoethanol modified mutacin 1140 (B-Me mutacin), which is designated by the grey line with circles. The modification changes the retention time of the native molecule to the left, a slightly more hydrophilic solvent (more water relative to acetonitrile). The large peak in the flow through was determined, by smell, to be 2-mercaptoethanol. The two small sharp peaks following the flow peak, which both have an absorbance in the 280 nm range, appears to be contaminants in the 2-mercaptoethanol solution. They also appeared in Nisin A modified by the same 2-mercaptoethanol labeling procedure. Nisin has no aromatic residues to account for this absorbance. […] In the future, these 2-mercatoethanol peaks will be removed by washing the sample with ice cold ether, which will extract the thiol compound leaving our peptide in solution. We spotted 5 μL of the native mutacin and the B-Me mutacin onto a plate overlaid with M. luteus. […] We also performed the same reaction with ethanethiol following the same procedure outline above. […]

Row | Substance | lipid II binding (retention of lipid II at the origin of the TLC plate) [1] | bactericidal activity (bacterial clearing, inhibition of bacterial growth) (M. luteus)
1 | ethanethiol labeled nisin: nisin following addition of the organosulfur compound ethanethiol | maintains lipid II binding activity; also recorded: diminished capacity to retain lipid II at the origin | –
2 | gallidermin | retain lipid II at the origin | –
3 | mutacin 1140 | – | bacterial clearing
4 | nisin A | retain lipid II at the origin | –
